# Key:
# E. coli DH5a = assay: Antimicrobial activity of dyed Nylon 6,6 fabric: final OD600 and % inhibition; type: cell-based
# Experimental: (§1) Violacein is reported as being a potent antibiotic, capable of inhibiting the growth of a wide range of microbial kingdoms including bacteria, yeast, fungi, viruses, protozoa and nematode. […] To test this, overnight cultures of wild-type E. coli DH5a and S. cerevisiae S228c strains were diluted in 5 mL of cultivation media (LB for E. coli, minimal media for S. cerevisiae) to a starting OD600 of 0.1. 1.5×1.5 cm dyed Nylon 6,6 fabric strips were sterilized by submerging in 75% ethanol for 15 mins and air drying in a laminar air flow hood before adding to each culture (with undyed Nylon 6,6 fabric as a negative control). […] This experiment provides evidence that all violacein derivatives display antimicrobial properties.
# S. cerevisiae S228c = assay: as above; type: cell-based
# Experimental: as §1
# [1] = Free radical scavenging ability of dyed Nylon 6,6 fabric (DPPH); type: biochemical; conditions: dyed Nylon 6,6 fabric strip
# Experimental: Violacein is reported as being a potent antioxidant able to effectively scavenge free radicals. […] To test this, 1.5×1.5 cm dyed Nylon 6,6 fabric strips were incubated in the dark at room temperature for 1 h in 5 mL of a 5×10^−5 M DPPH free radical solution in 100% ethanol. Undyed Nylon 6,6 fabric strips were included as a negative control. After 1 h absorbance was measured at 517 nm and % scavenging ability calculated as above.
# [2] = UV absorption capability (absorbance maxima, UV-A, UV-B, UV-C absorption) by HPLC; type: physicochemical
# Experimental: The software Agilent Openlab CDS Chemstation Rev.
# Violacein is reported as being a potent UV absorbent able to effectively absorb UV radiation, however, much less is known about the other violacein derivatives. To investigate the potential of using violacein and violacein derivatives as UV inhibitors and to potentially impart UV protection to fabrics, the UV absorption spectra of each compound was analyzed by HPLC and the total absorption capability at each of the most relevant UV wavelengths quantified.
# For the quantification of UV absorption capacity of the compound of interest, a chromatographic separation on the F5 column and a gradient of water/acetonitrile containing 0.05% formic acid was run according to Example 5). […] The compounds were quantified based on the signal at 230 nm, using calibration curves of authentic analytical standards.
# The UV absorption capacity is represented in mAU.min/mM. UV-A, UV-B and UV-C represent the most relevant regions where UV protection is required. UV-C is the most harmful type of UV radiation and can be generated by inorganic sources. UV-B radiation predominantly comes from the suns rays and is responsible for sun burn. UV-A radiation is also derived predominantly from the suns rays, and while UV-A radiation is less harmful than UV-B or UV-C but is much more prevalent.
# [3] = Solubility, stability (heat, UV) and colour of violacein and proviolacein glycosides in aqueous solution; type: physicochemical
# Excerpt: In this experiment, qualitative assessments of the solubility, stability and colour of glycosylated violacein and proviolacein were made. The first notable observation was that after the scale-up glycosylation reaction the aqueous phase of the reaction mix was purple (for violacein) and blue (for proviolacein). […] While its well known that glycosylation greatly improves the water solubility of molecules, the attachment of a sugar group typically changes the physiochemical properties of the molecule. In the case of coloured compounds, this typically eliminates their colour. The observation here that glycosylation results in a derivative that retains the original colour is both surprising and commercially useful for use in aqueous products e.g. beverages. To test the stability of violacein and proviolacein glycosides in aqueous solution the solutions were exposed to heat (incubated at 80° c. for 6 h) and UV (incubated in a UV hood for 6 h). HPLC analysis before after each test was used to measure the amount that had degraded during exposure. […] (approx. 0.1% lost during exposure).
# S. cerevisiae = assay: Cultivation of engineered S. cerevisiae production strains (titer of each metabolite, final OD600, product toxicity); conditions: intracellular accumulation; growth rate and final OD600
# Experimental: Genetically engineered yeast strains were pre-cultured in 500 μL or 5 mL of liquid Delft minimal media (Table 10) with 20 g/L glucose and relevant amino acid supplements for 48 h at 30° C. and 280 rpm in 2 mL microtiter plates with air-permeable sealing or 12 mL cultivation tubes. Subsequently, 10 μL or 1 mL of yeast preculture was transferred to 490 μL or 49 mL of Delft minimal media with 20 g/L glucose and relevant amino acid supplements and cultivated for 72 h at 30° C. and 280 rpm in either a 2 mL microtiter plate with air-permeable sealing, or a 200 mL shakeflask. After cultivation, extracellular metabolites were extracted by mixing whole cell broth 1:1 with 100% methanol, vortexing thoroughly and centrifuging at 4000×g for 5 min. […]
# In some cases, where a non-ionic surfactant was added to the cultivation media, extraction of extracellular metabolites was done by centrifuging the entire culture broth at 4000×g for 5 min to separate the culture into 3 phases, a biomass “pellet” a dilute surfactant phase, and a violacein or violacein derivative concentrated surfactant phase. […] Where possible, authentic analytical standards were used for quantification. […] Yeast cells were pelleted by centrifugation at 11.000×G for 5 min., and the supernatant was recovered and analyzed by UHPLC or LC-MS/MS. […]
# Experimental for S. cerevisiae SC-144: After cultivation cultures were transferred to 50 mL falcon tubes and centrifuged 4000×g for 5 min. […] The aqueous layers were separated from the cell pellets to observe the colour of the cells. […] Samples were diluted in water to a final volume of 100 μL until they were within the linear range of the spectrophotometric plate reader. Each sample was measured at 575 nm (experimentally determined to be the emission maxima of deoxyviolacein). […] The final OD600 of each cultivation was also measured by first washing the cell pellet with water (to remove as much deoxyviolacein from the media as possible) and finally resuspending in 50 mL water.
molecule,measurement,setting,value
O=C1N=C(c2c[nH]c3ccccc23)C=C1c1c[nH]c2ccccc12 [prodeoxyviolacein],Final OD600,"E. coli DH5a; E. coli cultured overnight at 30° c. with dyed Nylon 6,6 fabric strip, starting OD600 0.1",4.67
same,% Inhibition,"E. coli DH5a; E. coli, dyed Nylon 6,6 fabric vs undyed fabric control",10.49%
same,Final OD600,"S. cerevisiae S228c; S. cerevisiae cultured overnight at 30° c. with dyed Nylon 6,6 fabric strip, starting OD600 0.1",4.70
same,% Inhibition,"S. cerevisiae S228c; S. cerevisiae, dyed Nylon 6,6 fabric vs undyed fabric control",12.35%
same,OD517,[1]; 1 h in the dark in 5×10^−5 M DPPH in 100% ethanol,1.99
same,Scavenging ability %,"[1]; 1 h in the dark in 5×10^−5 M DPPH, vs undyed control",12.28%
same,UV absorption capability in the UV-B region,[2]; 305 nm,particularly high
same,Total UV absorption UV C (245 nm),[2]; AUC of HPLC peak at 245 nm per mM,3516.1 (mAU · min)/mM
same,Total UV absorption UV B (305 nm),[2]; AUC of HPLC peak at 305 nm per mM,3778.8 (mAU · min)/mM
same,Total UV absorption UV A (360 nm),[2]; AUC of HPLC peak at 360 nm per mM,0 (mAU · min)/mM
O=C1NC(c2c[nH]c3ccc(OC4OC(CO)C(O)C(O)C4O)cc23)=CC1=C1C(=O)Nc2ccccc21 (stereo not shown) [violacein glucoside],amount lost (degraded) during exposure to UV,[3],approx. 0.1%
same,amount lost (degraded) during exposure to heat,[3],approx. 0.1%
same,water solubility,[3],water soluble
"(1,1,3,3-Tetramethylbutyl)phenyl-polyethylene glycol, Polyethylene glycol tert-octylphenyl ether [Triton X-114]",toxicity of in situ extractant to S. cerevisiae,S. cerevisiae SC-144,non-toxic
"N=C(Cc1c[nH]c2ccccc12)C(=O)O [IPA imine, Indole 3-pyruvic acid imine]",toxicity to the yeast production host,S. cerevisiae,not toxic
CCCCCCCCCCCCCC(=O)OC(C)C [isopropyl myristate],toxicity of in situ extractant to S. cerevisiae,S. cerevisiae SC-144,non-toxic

# Reference: US20260092179A1, “GENETICALLY MODIFIED HOST CELLS PRODUCING VIOLACEIN, ANALOGUES, AND DERIVATIVES THEREOF” (OCTARINE BIO APS, priority 2022, published 2026)
